Results as given in ChEMBL document CHEMBL3124777, “Synthesis and biological evaluation of thiazoline derivatives as new antimicrobial and anticancer agents” (Eur J Med Chem, 2014).
In brackets after ≈: the same amount, converted by molar mass. Activity calls are given as the source filed them. No cut-off for these calls is given here.

Key:
C6 [1] = assay: Cytotoxicity against rat C6 cells after 24 hrs by MTT assay; format: functional, cell-based; settings: C6, 24 h
NIH3T3 = assay: Cytotoxicity against mouse NIH/3T3 cells after 24 hrs by MTT assay; format: cell-based; settings: NIH3T3, 24 h
Fusarium solani = assay: Antimicrobial activity against Fusarium solani NRRL 13414 after 48 to 72 hrs by microbroth dilution method; format: functional
Escherichia coli = assay: Antimicrobial activity against Escherichia coli ATCC 25922 after 18 to 24 hrs by microbroth dilution method; format: functional
Aspergillus ochraceus = assay: Antimicrobial activity against Aspergillus ochraceus NRRL 3174 after 48 to 72 hrs by microbroth dilution method; format: functional
Trichoderma harzianum = assay: Antimicrobial activity against Trichoderma harzianum NRRL 20565 after 48 to 72 hrs by microbroth dilution method; format: functional
C6 [2] = assay: Cytotoxicity against rat C6 cells assessed as cell viability at 200 ug/ml after 24 hrs by MTT assay relative to control; format: functional; settings: C6, 24 h, read-out: Activity
Pseudomonas aeruginosa = assay: Antimicrobial activity against Pseudomonas aeruginosa […] after 18 to 24 hrs by microbroth dilution method; format: functional
C6 [3] = assay: Inhibition of DNA synthesis in rat C6 cells assessed as BrdU incorporation after 24 hrs by ELISA; format: functional, cell-based
Aspergillus parasiticus = assay: Antimicrobial activity against Aspergillus parasiticus NRRL 465 after 48 to 72 hrs by microbroth dilution method; format: functional
C6 [4] = assay: Cytotoxicity against rat C6 cells assessed as cell viability at 50 ug/ml after 24 hrs by MTT assay relative to control; format: functional; settings: C6, 24 h, read-out: Activity
C6 [5] = assay: Inhibition of DNA synthesis in rat C6 cells assessed as BrdU incorporation at IC50 after 24 hrs by ELISA; format: functional, cell-based
C6 [6] = assay: Cytotoxicity against rat C6 cells assessed as cell viability at 25 ug/ml after 24 hrs by MTT assay relative to control; format: functional; settings: C6, 24 h, read-out: Activity
C6 [7] = assay: Cytotoxicity against rat C6 cells assessed as cell viability at 100 ug/ml after 24 hrs by MTT assay relative to control; format: functional; settings: C6, 24 h, read-out: Activity
C6 [8] = assay: Cytotoxicity against rat C6 cells assessed as cell viability at 6 ug/ml after 24 hrs by MTT assay relative to control; format: functional; settings: C6, 24 h, read-out: Activity
Penicillium chrysogenum = assay: Antimicrobial activity against Penicillium chrysogenum NRRL 1951 after 48 to 72 hrs by microbroth dilution method; format: functional
C6 [9] = assay: Cytotoxicity against rat C6 cells assessed as cell viability at 12 ug/ml after 24 hrs by MTT assay relative to control; format: functional; settings: C6, 24 h, read-out: Activity
Fusarium culmorum = assay: Antimicrobial activity against wild type Fusarium culmorum after 48 to 72 hrs by microbroth dilution method; format: functional
Fusarium verticillioides = assay: Antimicrobial activity against Fusarium moniliforme NRRL 1866 after 48 to 72 hrs by microbroth dilution method; format: functional
Micrococcus luteus = assay: Antimicrobial activity against Micrococcus luteus NRLL B-4375 after 18 to 24 hrs by microbroth dilution method; format: functional
Listeria monocytogenes = assay: Antimicrobial activity against Listeria monocytogenes ATCC 7644 after 18 to 24 hrs by microbroth dilution method; format: functional
Candida albicans = assay: Antimicrobial activity against Candida albicans ATCC 22019 after 18 to 24 hrs by microbroth dilution method; format: functional
Staphylococcus aureus = assay: Antimicrobial activity against Staphylococcus aureus NRRL B-767 after 18 to 24 hrs by microbroth dilution method; format: functional
Bacillus subtilis = assay: Antimicrobial activity against Bacillus subtilis NRS-744 after 18 to 24 hrs by microbroth dilution method; format: functional

Row | Compound | MIC (Fusarium solani) [µg/mL] | MIC (Escherichia coli) [µg/mL] | MIC (Aspergillus ochraceus) [µg/mL] | MIC (Trichoderma harzianum) [µg/mL] | MIC (Pseudomonas aeruginosa) [µg/mL] | MIC (Aspergillus parasiticus) [µg/mL] | MIC (Penicillium chrysogenum) [µg/mL] | MIC (Fusarium culmorum) [µg/mL] | MIC (Fusarium verticillioides) [µg/mL] | MIC (Micrococcus luteus) [µg/mL] | IC50 (C6 [1]) [µg/mL] | IC50 (NIH3T3) [µg/mL] | viability at 200 µg/mL (C6 [2]) [%] | inhibition (C6 [3]) | viability at 50 µg/mL (C6 [4]) [%] | inhibition (C6 [5]) | viability at 25 µg/mL (C6 [6]) [%] | viability at 100 µg/mL (C6 [7]) [%] | viability at 6 µg/mL (C6 [8]) [%] | viability at 12 µg/mL (C6 [9]) [%] | also measured
1 | Cc1ccc(-c2cs/c(=N/NC(=O)CSc3nnnn3-c3ccccc3)n2-c2ccccc2)cc1 | 250 (≈ 500 µM) | 250 (≈ 500 µM) | 250 (≈ 500 µM) | 125 (≈ 250 µM) | 250 (≈ 500 µM) | 250 (≈ 500 µM) | 250 (≈ 500 µM) | 125 (≈ 250 µM) | 250 (≈ 500 µM) | 250 (≈ 500 µM) | 14.7 (≈ 29.4 µM) | > 500 | 22.2 | Dose-dependent effect | 29.5 | Active | 38.8 | 28.5 | 66.8 | 55.1 | MIC (Listeria monocytogenes): 250 µg/mL (≈ 500 µM); MIC (Candida albicans): 250 µg/mL (≈ 500 µM); MIC (Staphylococcus aureus): 250 µg/mL (≈ 500 µM); MIC (Bacillus subtilis): 250 µg/mL (≈ 500 µM)
2 | Cn1nnnc1SCC(=O)N/N=c1/scc(-c2ccc(C#N)cc2)n1-c1ccccc1 | 250 (≈ 557 µM) | 250 (≈ 557 µM) | 250 (≈ 557 µM) | 125 (≈ 279 µM) | 250 (≈ 557 µM) | 250 (≈ 557 µM) | 250 (≈ 557 µM) | 250 (≈ 557 µM) | 250 (≈ 557 µM) | 250 (≈ 557 µM) | 23.3 (≈ 51.9 µM) | 213 (≈ 476 µM) | 28.6 | Dose-dependent effect | 35.6 | Active | 43.9 | 30.9 | 63.5 | 53.9 | MIC (Listeria monocytogenes): 250 µg/mL (≈ 557 µM); MIC (Candida albicans): 250 µg/mL (≈ 557 µM); MIC (Staphylococcus aureus): 250 µg/mL (≈ 557 µM); MIC (Bacillus subtilis): 500 µg/mL (≈ 1110 µM)
3 | Cc1ccc(-c2cs/c(=N/NC(=O)CSc3nnc(C)s3)n2-c2ccccc2)cc1 | 250 (≈ 551 µM) | 250 (≈ 551 µM) | 250 (≈ 551 µM) | 250 (≈ 551 µM) | 250 (≈ 551 µM) | 250 (≈ 551 µM) | 250 (≈ 551 µM) | 250 (≈ 551 µM) | 250 (≈ 551 µM) | 250 (≈ 551 µM) | 25.3 (≈ 55.8 µM) | 373 (≈ 823 µM) | 13.3 | Dose-dependent effect | 40.6 | Active | 50.1 | 31.5 | 65.9 | 58.3 | MIC (Listeria monocytogenes): 250 µg/mL (≈ 551 µM); MIC (Candida albicans): 250 µg/mL (≈ 551 µM); MIC (Staphylococcus aureus): 500 µg/mL (≈ 1100 µM); MIC (Bacillus subtilis): 500 µg/mL (≈ 1100 µM)

Now from value to molecule, other results behind:

Row | MIC (Fusarium solani) [µg/mL] | MIC (Escherichia coli) [µg/mL] | MIC (Aspergillus ochraceus) [µg/mL] | MIC (Trichoderma harzianum) [µg/mL] | MIC (Pseudomonas aeruginosa) [µg/mL] | MIC (Aspergillus parasiticus) [µg/mL] | MIC (Penicillium chrysogenum) [µg/mL] | MIC (Fusarium culmorum) [µg/mL] | MIC (Fusarium verticillioides) [µg/mL] | MIC (Micrococcus luteus) [µg/mL] | Compound | IC50 (C6 [1]) [µg/mL] | IC50 (NIH3T3) [µg/mL] | viability at 200 µg/mL (C6 [2]) [%] | inhibition (C6 [3]) | viability at 50 µg/mL (C6 [4]) [%] | inhibition (C6 [5]) | viability at 25 µg/mL (C6 [6]) [%] | viability at 100 µg/mL (C6 [7]) [%] | viability at 6 µg/mL (C6 [8]) [%] | viability at 12 µg/mL (C6 [9]) [%] | also measured
4 | 250 (≈ 443 µM) | 250 (≈ 443 µM) | 250 (≈ 443 µM) | 125 (≈ 221 µM) | 250 (≈ 443 µM) | 250 (≈ 443 µM) | 250 (≈ 443 µM) | 250 (≈ 443 µM) | 250 (≈ 443 µM) | 250 (≈ 443 µM) | O=C(CSc1nnnn1-c1ccccc1)N/N=c1/scc(-c2ccc(Br)cc2)n1-c1ccccc1 | 21 (≈ 37.2 µM) | 433 (≈ 768 µM) | 20.4 | Dose-dependent effect | 32 | Active | 47.9 | 24.3 | 61.8 | 58.6 | MIC (Listeria monocytogenes): 250 µg/mL (≈ 443 µM); MIC (Candida albicans): 125 µg/mL (≈ 221 µM); MIC (Staphylococcus aureus): 250 µg/mL (≈ 443 µM); MIC (Bacillus subtilis): 250 µg/mL (≈ 443 µM)
5 | 250 (≈ 496 µM) | 250 (≈ 496 µM) | 250 (≈ 496 µM) | 125 (≈ 248 µM) | 250 (≈ 496 µM) | 250 (≈ 496 µM) | 250 (≈ 496 µM) | 125 (≈ 248 µM) | 250 (≈ 496 µM) | 250 (≈ 496 µM) | O=C(CSc1nnnn1-c1ccccc1)N/N=c1/scc(-c2ccc(F)cc2)n1-c1ccccc1 | 24.3 (≈ 48.3 µM) | 207 (≈ 410 µM) | 30.6 | Dose-dependent effect | 43.7 | Active | 49.3 | 35.8 | 74.9 | 60 | MIC (Listeria monocytogenes): 250 µg/mL (≈ 496 µM); MIC (Candida albicans): 250 µg/mL (≈ 496 µM); MIC (Staphylococcus aureus): 250 µg/mL (≈ 496 µM); MIC (Bacillus subtilis): 500 µg/mL (≈ 993 µM)
